Results on two substances are retold here after PMC5464773 (eLife, 2017).

For test [1], the system named is Bfl-1. The test is described as follows: Competition fluorescence polarization (anisotropy) with fluoresceinated BIM. The format is binding, human. The note with it: ratio of Ki values from competition FP. How it is done:
Plates were mixed at 23°C for 3 hr. Plates were read again at 24 to check equilibration. Experiments were done in at least triplicate.
For orientation: In fluorescence polarisation assays a small probe gives low polarisation when free and higher when bound to something large.

For test [2], the system named is BCR-ABL-expressing B-lineage acute lymphoblastic leukemia cells dependent on Bcl-xL. The test is described as follows: BH3 profiling, mitochondrial depolarization (JC-1) in permeabilized cells. The format is cell-based. The note with it: BH3 profiling fits Bcl-xL, sigmoidal dose-response (variable slope), fit ambiguous.

As to Ac-QWVREIAAGLRLAADNVNAQLER-NH2 [FS1], the “specificity for Bfl-1 relative to Bcl-xL, Bcl-2, Bcl-w and Mcl-1” value in test [1] is “at least 150 fold”.

Regarding Ac-QWIREIAAGLRRFADILNAQVER-NH2 [FS3], the “Bottom (best-fit value)” value in test [2] (constraint Bottom < 5) is on record as ~ 5. Moreover, in test [2] (constraint Top > 78), the “Top (best-fit value)” value turned out to be 97.17. In addition, the “HillSlope (best-fit value)” value in test [2] is ~ 8.841. In addition, the “LogEC50 (best-fit value)” value in test [2] (x = Log [Peptide] M) is reported as ~ -4.964.
